pIC50: −log10 of the molar value. Read-outs that look alike come from different tables or passages of the source.
Assays:
[1] = system: BT-20 breast cancer cells; experiment: Immunocytochemistry and confocal microscopic analysis of mitotic spindles; format: cell-based, human; conditions: BT-20 cells; for mitotic spindle morphology (α-tubulin, DNA): confocal microscopy
Experimental: (§1) BT-20 and MDA-MB-231 breast cancer cells (HTB-19, HTB-26 ATCC, Rockville, Md.) and U373 glioblastoma cells (HTB-17 ATCC Rockville, Md.) were grown in MEM media modified with 10% Fetal Bovine serum and 1% Penicillin/Streptomycin (Life Technologies, Rockville Md.). Cells were seeded onto sterile 22 mm square coverslips in 6-well plates. Cells on coverslips were kept in an incubator for 24 hours prior to treatment. The following day, VDC or VDacac was added from a stock solution made in DMSO to yield final concentration ranging from 3.9 to 500 μM (final DMSO concentration=0.025%). Cells were returned to a 37° C. incubator for 24 hours.
At the appropriate time point, coverslips containing BT-20 cells were fixed in −20° C. methanol for 15 minutes followed by 15 minutes incubation in phosphate buffered saline +0.1% Triton X-100 (PBS+Tx). Coverslips were next incubated with a primary antibody recognizing α-tubulin (Sigma, St.Louis Mo.) γ-tubulin (BAbCo, Berkeley Calif.), or NuMA (Calbiochem, SanDiego Calif.) for 40 minutes in a humidified chamber at 37° C. Coverslips were washed for 15 minutes in PBS-Tx followed by a 40 min incubation with a fluorescently labeled secondary antibody (Jackson Immunoresearch, West Grove Pa.). For double labeling the respective primary and secondary antibodies were combined. The coverslips were again rinsed in PBS-Tx and incubated with 5 μM Toto−3 (Molecular Probes, Eugene Oreg.) for 20 minutes to label the DNA. Coverslips were immediately inverted onto slides in Vectashield (Vector Labs, Burlingame, N.H.) to prevent photobleaching, sealed with nail polish and stored at 4° C. Bovine oocytes were processed for immunocytochemistry as described previously. Navara et al., Dev. Biol., 162: 29-40, 1994.
Slides were examined using a Bio-Rad MRC-1024 Laser Scanning Confocal Microscope mounted on a Nikon Eclipse E800 upright microscope with high numerical aperture objectives. Digital data was processed using Lasersharp (Bio-Rad, Hercules Calif.) and Photoshop (Adobe Systems Mountain View Calif.) software and printed on a Pictrography printer (Fuji Photo Elmsford, N.Y.).

[2] = system: MDA-MB-231 breast cancer cells; experiment: MTT cytotoxicity assay; format: cell-based, human; conditions: MDA-MB-231, 48 hours; read-out: IC50 (inhibition of cellular proliferation, MTT)
Experimental: as §1
(§2) The cytotoxicity of VDC and VDacac against the human tumor cell lines discussed above was assayed using the MTT (3-[4,5-dimethylthiazol-2-yl]-2,5-diphenyl tetrazolium bromide) assay (Boehringer Mannheim Corp., Indianapolis, Ind.). Briefly, exponentially growing tumor cells were seeded into a 96-well plate at a density of 2.5×10^4 cells/well and incubated for 36 hr at 37° C. prior to drug exposure. On the day of treatment, culture medium was carefully aspirated from the wells and replaced with fresh medium containing VDC or VDacac at concentrations ranging from 3.9 to 500 μM. Triplicate wells were used for each treatment. The cells were incubated with the vanadium compounds for 48 hours at 37° C. in a humidified 5% CO2 atmosphere. To each well, 10 μl of MTT (0.5 mg/ml final concentration) was added and the plates were incubated at 37° C. for 4 hours to allow MTT to form formazan crystals by reacting with metabolically active cells. The formazan crystals were solubilized overnight at 37° C. in a solution containing 10% SDS in 0.01 M HCl. The absorbence of each well was measured in a microplate reader (Labsystems, Helsinki, Finland) at 540 nm and a reference wavelength of 690 nm. To translate the OD540 values into the number of live cells in each well, the OD540 values were compared to those on standard OD540—versus—cell number curves generated for each cell line. The percent survival was calculated using the formula: % survival=Live cell number[test]/Live cell number [control]×100. The IC50 values were calculated by non-linear regression analysis using Graphpad Prism software version 2.0 (Graphpad Software, Inc., San Diego, Calif.).

U373 glioblastoma cells = experiment: MTT cytotoxicity assay; format: cell-based, human; conditions: U373, 48 hours; read-out: IC50 (inhibition of cellular proliferation, MTT)
Experimental: as §1, §2

[3] = system: BT-20 breast cancer cells; experiment: MTT cytotoxicity assay; format: cell-based, human; conditions: BT20, 48 hours; read-out: IC50 (inhibition of cellular proliferation, MTT)
Experimental: as §1, §2

Zebrafish embryos [4] = experiment: Zebrafish embryo model system: embryos exposed to compound in medium, cell division observed; format: in vivo, Zebrafish (Danio rerio); conditions: for inhibition of mitosis in treated embryos: 10 μM to 4 mM in medium; for effect on embryo development: 120 minutes; for effect on embryo cell division: thirty minutes after treatment
Experimental: Two-cell stage Zebrafish embryos were dechorionated with 1% trypsin-EDTA and treated with 1% DMSO at a temperature of 28.5° C. Zebrafish embryos were removed from their chorions by mild digestion in 1% Trypsin-EDTA (Sigma, St. Louis, Mo.) for 10 minutes at 28.5° C. (Standard temperature - ST), washed three times in “egg water” and twice in “embryonic medium” (EM) as described in Westerfield, M., The Zebrafish Book, Supra. The dechorionated two-cell stage cleaving eggs/embryos were transferred to the 24-well plastic cell culture plates (Costar, Cambridge, Mass.) filled with EM. Dechorionated embryos (10-12 per well) were exposed to VDC and VDacac at a constant ST for 0.5-24 hours. The final volume of the medium in each well was 500 μL. Both compounds were used at concentrations ranging from 10 μM to 4 mM. The compounds were dissolved in DMSO and then diluted serially with the incubation medium. The final concentration of DMSO in the wells was 1.2%. The sham-treated control embryos were incubated in EM in the presence of 1.2% DMSO.
(§3) Observations of cell division and development of the Zebrafish embryos were carried out using a SMZ-10A stereo microscope, once every 30 minutes within the first 3 hours of incubation and at 6, 12 and 24 hours, as well. […] The stereo microscope was fitted with a specially designed transparent heating tray in order to keep embryos at ST during observations. Pictures of the embryos were taken with a H-III Photomicrographic System (Nikon) using Ektachrome 64X film (Kodak, Rochester, N.Y.).

Zebrafish embryos [5] = experiment: Microinjection of Zebrafish embryos, cell division and development observed; format: in vivo, Zebrafish (Danio rerio)
Text: VDC and VDacac were microinjected into Zebrafish embryos at room temperature, using a SMZ-10A stereo microscope (Nikon, Melville, N.Y.) and Transjector 5246 (Eppendorf, Westbury, N.Y.). Dechorionated Zebrafish embryos at the two-cell stage were transferred to a Petri dish filled with embryonic medium. The bottom of the Petri dish was covered with an agar layer, and the embryos were placed in grooves in agar, exactly as described in Westerfield, M., The Zebrafish Book, Supra. Microinjections were performed under visual control. At the 2-4 cell stage, approximately 2 nL of the compound dissolved in Hank's Balanced Salt Solution (HBSS) (Gibco, Rockville, Md.) with 10% DMSO was injected into the cytoplasm of one of the blastomeres through a constantly flowing micropipette with a splinted sharp tip of 2-3 μm diameter. Sham-treated control embryos were injected with 2 nL of HBSS containing 10% DMSO. After the treatment, the embryos were transferred to standard temperature, 28.5° C.
as §3

pharyngonasal cancer = conditions: single assay, Sakurai et al. 1995; cited from earlier work
tumor cell = conditions: Kopf-Maier et al. 1983; cited from earlier work
[6] = system: dynein ATPase activity found in sperm axonemes; conditions: 100 μM
Experimental: The effect of VDC on ATPase and GTPase activity was determined by isolating sperm axonemes after treatment of human sperm with 100 μM VDC. Sperm were pelleted by centrifugation 1900×g for 15 min, washed twice in cold PBS, resuspended in extraction buffer (1.0% Triton X-100, 0.1 M NaCl, 4 mM MgSO4, 1 mM CaCL2, 0.1 mM EDTA, 0.1 mM ATP, 7 mM 2-mercaptoethanol, and 5 mM imidazole buffer pH 7.0) and disrupted using a Dounce homogenizer. This homogenized suspension was centrifuged at 1500×g for 5 min to remove sperm heads and the resulting supernatant was recentrifuged at 12,000×g to recover the broken axonemes.
The axoneme pellet was resuspended in extraction buffer to remove residual membrane material, centrifuged at 1500×g for 5 min to remove residual sperm heads followed by centrifugation at 12,000×g to recover axonemes. The recovered axonemes were washed three times in extraction buffer lacking Triton X-100 and resuspended in solubilization buffer (0.6 M NaCl, 4 mM MgSO4, 1 mM CaCl2, 0.1 mM EDTA, 1 mM DTT, 7 mM 2-mercaptoetanol, 5 mM imidazole buffer pH 7.0) to solubilize the readily extractable motor protein dynein. The suspension was then centrifuged at 12,000×g. […] ATPase activity was measured using the EnzChek Phophate assay kit (Molecular Probes, Eugene Oreg.) according to manufacturers instructions.

[7] = system: germinal vesicle stage bovine oocytes; conditions: 24 hours; for oocytes matured to metaphase of meiosis II (MII): control 93%
Experimental: Immature oocytes were recovered from bovine ovaries after slaughter by aspiration of 5 mm follicles. Only oocytes having a homogenous cytoplasm and surrounded by at least three layers of cumulus cells were selected. These were washed through three rinses of Hepes buffered Tyrode's media (114 mM NaCl, 3.2 mM KCl, 2 mM CaCl22H2O, […] MgCl26H2O, 25 mM NaHCO3, 0.4 mM NaH2PO4, 10 mM Na lactate, 100 I.U./ml Penicillin)(TL-Stock) modified with 10 mM Hepes, 1 mg/ml BSA, 0.2 mM pyruvate, and 25 μg/ml gentamicin (TL-Hepes; (16). Oocytes were matured for 24 hours in 50 μl drops of TC199 modified with 10% fetal bovine serum, 5 μg/ml FSH-p, 25μg/ml gentamicin, 1 μg/ml estrogen at 39° C. in 5% CO2 under mineral oil (17). After the oocytes were placed in the drops, 25 or 50 μM VDC was added in DMSO. Equal amounts of DMSO were added to control drops. Bovine oocytes were processed for immunocytochemistry after 24 hours.
Germinal vesicle stage bovine oocytes were matured in vitro in the presence of vehicle or VDC (25 μM or 50 μM). After 24 hours, these oocytes were fixed, labeled with anti-tubulin antibodies and the DNA dye TOTO−3. Oocytes were scored according to their stage in meoisis, microtubule organization and chromosome number.

CC(=O)C=C(C)[O-].O=S(=O)([O-])C(F)(F)F.[V+4].c1cc[cH-]c1.c1cc[cH-]c1 [VDacac, Vanadocene acetylacetonato monotriflate]
mitotic spindle morphology (α-tubulin, DNA) [1]: aberrant monopolar mitotic structures
pIC50 [2]: 5.04
pIC50 (U373 glioblastoma cells): 4.45
pIC50 [3]: 4.57
inhibition of mitosis in treated embryos (Zebrafish embryos [4]): inhibited mitosis in a concentration-dependent fashion
effect on embryo development (Zebrafish embryos [4]; 0.4 mM): developed similar defects
effect on embryo cell division (Zebrafish embryos [4]; 0.6 mM): cell division defects followed by fusion of the embryonic cells
effect on embryonic development after microinjection (Zebrafish embryos [5]; 1 pmoL microinjected (lower)): formation of a blastocoel-like cavity in the blastoderm and prevented gastrulation
effect on embryonic development after microinjection (Zebrafish embryos [5]; 49 pmoL microinjected (higher)): deterioration of cell localization and development failure

O.O.O=S(=O)([O-])[O-].[O]=[V+2].c1cnc2c(c1)ccc1cccnc12 [[VO(Phen)(H2O)2](SO4), (diaqua)(1,10-phenanthroline)oxovanadium (IV) sulfate]
activity against pharyngonasal cancer (pharyngonasal cancer): active agent against pharyngonasal cancer

Vanadocene dichloride [VDC]
NuMA localization [1]: only localized to one side of the mitotic spindle
γ-tubulin spindle pole labeling [1]: two foci of γ-tubulin on the same side of the chromosomes
mitotic spindle morphology (α-tubulin, DNA) [1]: aberrant monopolar mitotic structures
tumor cell growth (tumor cell): arrest tumor cell growth
pIC50 [2]: 4.96
pIC50 (U373 glioblastoma cells): 4.73
pIC50 [3]: 4.83
inhibition of ATPase activity found in axonemes ([6]; four separate experiments): 12.2%
ATPase activity found in axonemes ([6]; control 0.08±0.01): 0.07±0.02
inhibition of mitosis in treated embryos (Zebrafish embryos [4]): inhibited mitosis in a concentration-dependent fashion
effect on embryo development (Zebrafish embryos [4]; 0.76 mM): developed abnormal blastulae
effect on embryo cell division (Zebrafish embryos [4]; 1.9 mM): cell division defects followed by fusion of the embryonic cells
effect on embryonic development after microinjection (Zebrafish embryos [5]; 0.64 pmol microinjected (lowest)): formation of a blastocoel-like cavity in the blastoderm and prevented gastrulation
effect on embryonic development after microinjection (Zebrafish embryos [5]; 32 pmol microinjected (higher)): cell division slow-down and total disarray of cell localization and development arrest
effect on embryonic development after microinjection (Zebrafish embryos [5]; 58 pmol microinjected (highest)): total cell fusion within 30 minutes of microinjection
oocytes matured to metaphase of meiosis II (MII) ([7]; 25 μM): 16.2%
oocytes matured to metaphase of meiosis II (MII) ([7]; 50 μM): 10.0%
oocytes with abnormal meiotic spindles ([7]; 25 or 50 μM, control 4%): ≥ 50%

From patent publication US6642221B1, “Vanadium compounds as anti-proliferative agents” (Parker Hughes Institute, priority 2000, dated 2003)
